Assay results published in patent publication US5294611A, “Angiotensin II receptor blocking 2,3,6 substituted quinazolinones” (American Cyanamid Company, priority 1993, dated 1994).
Where two headings read alike, the source gives them in different places.

Tested on: Angiotensin II (AII) vasopressor response
Assay: AII Challenge: antagonism of angiotensin II vasopressor response in conscious spontaneously hypertensive rats
Type: in vivo, rat (male okamoto-Aoki SHR)
Settings: for inhibition in vivo at 1 mg/kg / inhibition in vivo at 3 mg/kg / inhibition in vivo at 5 mg/kg: Rattus norvegicus; for inhibition in vivo at 1 mg/kg / inhibition in vivo at 3 mg/kg: iv; for inhibition in vivo at 3 mg/kg / inhibition in vivo at 5 mg/kg: read-out: Inhibition; for inhibition in vivo at 5 mg/kg: po; for Change: single SHR
Excerpt: Conscious Male okamoto-Aoki SHR, 16-20 weeks old, weighing approximately 330 g are purchased from Charles River Labs (Wilmington, Mass.). Conscious rats are restrained in a supine position with elastic tape. The area at the base of the tail is locally anesthetized by subcutaneous infiltration with 2% procaine. […] The cannula is secured, heparinized (1,000 I.U./ml), sealed and the wound is closed. The animals are placed in plastic restraining cages in an upright position. The cannula is attached to a Statham P23Db pressure transducer, and pulsatile blood pressure is recorded to 10-15 minutes with a Gould Brush recorder. […] Angiotensin II (human sequence, Sigma Chem. Co., St. Louis, Mo.) of 0.05 and 0.1 ug/kg i.v. is injected into all rats (predosing response). Then a test compound, vehicle or a known angiotensin II antagonist is administered i.v., i.p. or orally to each set of rats. […] The vasopressor response of angiotensin II is measured for the increase in systolic blood pressure in mmHg.

CCCCc1nc2ccc([C@H]3[C@@H]4C(=O)CC[C@@H]4ON3C)cc2c(=O)n1Cc1ccc(-c2ccccc2-c2nnn[nH]2)cc1 (relative stereo) [Example 48]
inhibition in vivo at 1 mg/kg (0.5 h, SHR n=2, 1 mg/kg I.V., AII 0.05 mcg/kg IV, 30 min post dose): 66%
inhibition in vivo at 1 mg/kg (0.5 h, SHR n=2, 1 mg/kg I.V., AII 0.1 mcg/kg IV, 30 min post dose): 52%
inhibition in vivo at 3 mg/kg (0.5 h, SHR n=2, 3 mg/kg I.V., AII 0.05 mcg/kg IV, 30 min post dose): 93%
inhibition in vivo at 3 mg/kg (0.5 h, SHR n=2, 3 mg/kg I.V., AII 0.1 mcg/kg IV, 30 min post dose): 94%
inhibition in vivo at 1 mg/kg (1 h, SHR n=2, 1 mg/kg I.V., AII 0.05 mcg/kg IV, 60 min post dose): 55%
inhibition in vivo at 1 mg/kg (1 h, SHR n=2, 1 mg/kg I.V., AII 0.1 mcg/kg IV, 60 min post dose): 71%
inhibition in vivo at 3 mg/kg (1 h, SHR n=2, 3 mg/kg I.V., AII 0.05 mcg/kg IV, 60 min post dose): 100%
inhibition in vivo at 3 mg/kg (1 h, SHR n=2, 3 mg/kg I.V., AII 0.1 mcg/kg IV, 60 min post dose): 86%
inhibition in vivo at 1 mg/kg (2 h, SHR n=2, 1 mg/kg I.V., AII 0.05 mcg/kg IV, 120 min post dose): 49%
inhibition in vivo at 1 mg/kg (2 h, SHR n=2, 1 mg/kg I.V., AII 0.1 mcg/kg IV, 120 min post dose): 31%
inhibition in vivo at 3 mg/kg (2 h, SHR n=2, 3 mg/kg I.V., AII 0.05 mcg/kg IV, 120 min post dose): 89%
inhibition in vivo at 3 mg/kg (2 h): 82%
inhibition in vivo at 1 mg/kg (3 h, SHR n=2, 1 mg/kg I.V., AII 0.05 mcg/kg IV, 180 min post dose): 38%
inhibition in vivo at 1 mg/kg (3 h, SHR n=2, 1 mg/kg I.V., AII 0.1 mcg/kg IV, 180 min post dose): 38%
inhibition in vivo at 3 mg/kg (3 h, SHR n=2, 3 mg/kg I.V., AII 0.05 mcg/kg IV, 180 min post dose): 60%
inhibition in vivo at 3 mg/kg (3 h, SHR n=2, 3 mg/kg I.V., AII 0.1 mcg/kg IV, 180 min post dose): 47%
inhibition in vivo at 1 mg/kg (4 h, SHR n=2, 1 mg/kg I.V., AII 0.05 mcg/kg IV, 240 min post dose): 26%
inhibition in vivo at 1 mg/kg (4 h, SHR n=2, 1 mg/kg I.V., AII 0.1 mcg/kg IV, 240 min post dose): 32%
inhibition in vivo at 3 mg/kg (4 h, SHR n=2, 3 mg/kg I.V., AII 0.05 mcg/kg IV, 240 min post dose): 60%
inhibition in vivo at 3 mg/kg (4 h, SHR n=2, 3 mg/kg I.V., AII 0.1 mcg/kg IV, 240 min post dose): 47%
inhibition in vivo at 1 mg/kg (5 h, SHR n=2, 1 mg/kg I.V., AII 0.05 mcg/kg IV, 300 min post dose): 18%
inhibition in vivo at 1 mg/kg (5 h, SHR n=2, 1 mg/kg I.V., AII 0.1 mcg/kg IV, 300 min post dose): 30%
inhibition in vivo at 3 mg/kg (5 h, SHR n=2, 3 mg/kg I.V., AII 0.05 mcg/kg IV, 300 min post dose): 47%
inhibition in vivo at 3 mg/kg (5 h, SHR n=2, 3 mg/kg I.V., AII 0.1 mcg/kg IV, 300 min post dose): 35%
inhibition in vivo at 1 mg/kg ([…], SHR n=2, 1 mg/kg I.V., AII 0.05 mcg/kg IV, 90 min post dose): 40%
inhibition in vivo at 1 mg/kg ([…], SHR n=2, 1 mg/kg I.V., AII 0.1 mcg/kg IV, 90 min post dose): 52%
inhibition in vivo at 3 mg/kg ([…], SHR n=2, 3 mg/kg I.V., AII 0.05 mcg/kg IV, 90 min post dose): 87%
inhibition in vivo at 3 mg/kg ([…], SHR n=2, 3 mg/kg I.V., AII 0.1 mcg/kg IV, 90 min post dose): 76%
inhibition in vivo at 5 mg/kg (0.5 h, SHR n=2, 5 mg/kg P.O., AII 0.05 mcg/kg IV, 30 min post dose): 76%
inhibition in vivo at 5 mg/kg (0.5 h, SHR n=2, 5 mg/kg P.O., AII 0.1 mcg/kg IV, 30 min post dose): 66%
inhibition in vivo at 5 mg/kg (1 h, SHR n=2, 5 mg/kg P.O., AII 0.05 mcg/kg IV, 60 min post dose): 76%
inhibition in vivo at 5 mg/kg (1 h, SHR n=2, 5 mg/kg P.O., AII 0.1 mcg/kg IV, 60 min post dose): 74%
inhibition in vivo at 5 mg/kg (2 h, SHR n=2, 5 mg/kg P.O., AII 0.05 mcg/kg IV, 120 min post dose): 90%
inhibition in vivo at 5 mg/kg (2 h, SHR n=2, 5 mg/kg P.O., AII 0.1 mcg/kg IV, 120 min post dose): 89%
inhibition in vivo at 5 mg/kg (3 h, SHR n=2, 5 mg/kg P.O., AII 0.1 mcg/kg IV, 180 min post dose): 74%
inhibition in vivo at 5 mg/kg (3 h): 82%
inhibition in vivo at 5 mg/kg (4 h, SHR n=2, 5 mg/kg P.O., AII 0.05 mcg/kg IV, 240 min post dose): 94%
inhibition in vivo at 5 mg/kg (4 h, SHR n=2, 5 mg/kg P.O., AII 0.1 mcg/kg IV, 240 min post dose): 79%
inhibition in vivo at 5 mg/kg (5 h, SHR n=2, 5 mg/kg P.O., AII 0.05 mcg/kg IV, 300 min post dose): 93%
inhibition in vivo at 5 mg/kg (5 h, SHR n=2, 5 mg/kg P.O., AII 0.1 mcg/kg IV, 300 min post dose): 79%
inhibition in vivo at 5 mg/kg ([…], SHR n=2, 5 mg/kg P.O., AII 0.05 mcg/kg IV, 90 min post dose): 79%
inhibition in vivo at 5 mg/kg ([…], SHR n=2, 5 mg/kg P.O., AII 0.1 mcg/kg IV, 90 min post dose): 85%
Average Change (SHR n=2, 1 mg/kg I.V., AII 0.05 mcg/kg IV, 30 min post dose): 15 mmHg
Average Change (SHR n=2, 1 mg/kg I.V., AII 0.05 mcg/kg IV, 60 min post dose): 20 mmHg
Average Change (SHR n=2, 1 mg/kg I.V., AII 0.05 mcg/kg IV, 90 min post dose): 26.5 mmHg
Average Change (SHR n=2, 1 mg/kg I.V., AII 0.05 mcg/kg IV, 120 min post dose): 22.5 mmHg
Average Change (SHR n=2, 1 mg/kg I.V., AII 0.05 mcg/kg IV, 180 min post dose): 27.5 mmHg
Average Change (SHR n=2, 1 mg/kg I.V., AII 0.05 mcg/kg IV, 240 min post dose): 32.5 mmHg
Average Change (SHR n=2, 1 mg/kg I.V., AII 0.05 mcg/kg IV, 300 min post dose): 36 mmHg
Average Change (SHR n=2, 1 mg/kg I.V., AII 0.1 mcg/kg IV, 30 min post dose): 25 mmHg
Average Change (SHR n=2, 1 mg/kg I.V., AII 0.1 mcg/kg IV, 60 min post dose): 15 mmHg
Average Change (SHR n=2, 1 mg/kg I.V., AII 0.1 mcg/kg IV, 90 min post dose): 25 mmHg
Average Change (SHR n=2, 1 mg/kg I.V., AII 0.1 mcg/kg IV, 120 min post dose): 36 mmHg
Average Change (SHR n=2, 1 mg/kg I.V., AII 0.1 mcg/kg IV, 180 min post dose): 32.5 mmHg
Average Change (SHR n=2, 1 mg/kg I.V., AII 0.1 mcg/kg IV, 240 min post dose): 35.5 mmHg
Average Change (SHR n=2, 1 mg/kg I.V., AII 0.1 mcg/kg IV, 300 min post dose): 36.5 mmHg
Average Change (SHR n=2, 3 mg/kg I.V., AII 0.05 mcg/kg IV, 30 min post dose): 2.5 mmHg
Average Change (SHR n=2, 3 mg/kg I.V., AII 0.05 mcg/kg IV, 60 min post dose): 0 mmHg
Average Change (SHR n=2, 3 mg/kg I.V., AII 0.05 mcg/kg IV, 90 min post dose): 5 mmHg
Average Change (SHR n=2, 3 mg/kg I.V., AII 0.05 mcg/kg IV, 120 min post dose): 4 mmHg
Average Change (SHR n=2, 3 mg/kg I.V., AII 0.05 mcg/kg IV, 180 min post dose): 15 mmHg
Average Change (SHR n=2, 3 mg/kg I.V., AII 0.05 mcg/kg IV, 240 min post dose): 15 mmHg
Average Change (SHR n=2, 3 mg/kg I.V., AII 0.05 mcg/kg IV, 300 min post dose): 20 mmHg
Average Change (SHR n=2, 3 mg/kg I.V., AII 0.1 mcg/kg IV, 30 min post dose): 2.5 mmHg
Average Change (SHR n=2, 3 mg/kg I.V., AII 0.1 mcg/kg IV, 60 min post dose): 6 mmHg
Average Change (SHR n=2, 3 mg/kg I.V., AII 0.1 mcg/kg IV, 90 min post dose): 10 mmHg
Average Change (SHR n=2, 3 mg/kg I.V., AII 0.1 mcg/kg IV, 120 min post dose): 7.5 mmHg
Average Change (SHR n=2, 3 mg/kg I.V., AII 0.1 mcg/kg IV, 180 min post dose): 22.5 mmHg
Average Change (SHR n=2, 3 mg/kg I.V., AII 0.1 mcg/kg IV, 240 min post dose): 22.5 mmHg
Average Change (SHR n=2, 3 mg/kg I.V., AII 0.1 mcg/kg IV, 300 min post dose): 27.5 mmHg
Average Change (SHR n=2, 5 mg/kg P.O., AII 0.05 mcg/kg IV, 30 min post dose): 10 mmHg
Average Change (SHR n=2, 5 mg/kg P.O., AII 0.05 mcg/kg IV, 60 min post dose): 10 mmHg
Average Change (SHR n=2, 5 mg/kg P.O., AII 0.05 mcg/kg IV, 90 min post dose): 8.5 mmHg
Average Change (SHR n=2, 5 mg/kg P.O., AII 0.05 mcg/kg IV, 120 min post dose): 4 mmHg
Average Change (SHR n=2, 5 mg/kg P.O., AII 0.05 mcg/kg IV, 180 min post dose): 7.5 mmHg
Average Change (SHR n=2, 5 mg/kg P.O., AII 0.05 mcg/kg IV, 240 min post dose): 2.5 mmHg
Average Change (SHR n=2, 5 mg/kg P.O., AII 0.05 mcg/kg IV, 300 min post dose): 3 mmHg
Average Change (SHR n=2, 5 mg/kg P.O., AII 0.1 mcg/kg IV, 30 min post dose): 16 mmHg
Average Change (SHR n=2, 5 mg/kg P.O., AII 0.1 mcg/kg IV, 60 min post dose): 12.5 mmHg
Average Change (SHR n=2, 5 mg/kg P.O., AII 0.1 mcg/kg IV, 90 min post dose): 7 mmHg
Average Change (SHR n=2, 5 mg/kg P.O., AII 0.1 mcg/kg IV, 120 min post dose): 5 mmHg
Average Change (SHR n=2, 5 mg/kg P.O., AII 0.1 mcg/kg IV, 180 min post dose): 12.5 mmHg
Average Change (SHR n=2, 5 mg/kg P.O., AII 0.1 mcg/kg IV, 240 min post dose): 10 mmHg
Average Change (SHR n=2, 5 mg/kg P.O., AII 0.1 mcg/kg IV, 300 min post dose): 10 mmHg
Change (1 mg/kg I.V., AII 0.05 mcg/kg IV, 30 min post dose): 15 mmHg
Change (1 mg/kg I.V., AII 0.05 mcg/kg IV, 60 min post dose): 20 mmHg
Change (1 mg/kg I.V., AII 0.1 mcg/kg IV, 30 min post dose): 25 mmHg
Change (1 mg/kg I.V., AII 0.1 mcg/kg IV, 60 min post dose): 15 mmHg
Change (3 mg/kg I.V., AII 0.05 mcg/kg IV, 60 min post dose): 0 mmHg
Change (3 mg/kg I.V., AII 0.05 mcg/kg IV, 90 min post dose): 5 mmHg
Change (3 mg/kg I.V., AII 0.05 mcg/kg IV, 180 min post dose): 15 mmHg
Change (3 mg/kg I.V., AII 0.05 mcg/kg IV, 240 min post dose): 15 mmHg
Change (5 mg/kg P.O., AII 0.1 mcg/kg IV, 240 min post dose): 10 mmHg
Change (5 mg/kg P.O., AII 0.1 mcg/kg IV, 300 min post dose): 10 mmHg
